EC50 data for 35 compounds are collected here from patent publication EP4001279A1, “NOVEL SPIROPYRROLIDINE DERIVED ANTIVIRAL AGENTS” (Enanta Pharmaceuticals, Inc., priority 2020, dated 2022).

pEC50: −log10 of the molar value. Some results are limits rather than exact numbers.

The subject of this test is 229E human corona virus (hCoV). In words: 229E live virus assay (CPE, ATPlite readout in MRC-5 cells). The class given is cell-based, hCoV-229E. As to conditions: Human coronavirus 229E, MRC5, hCoV-229E live virus, MOI 0.05, ATPlite readout, run in duplicate. In general terms: ATP-based viability assays read luminescence as a measure of living cells.
Regarding `N#C[C@@H]1C[C@@]2(CN1C(=O)[C@H](CC1CC1)NC(=O)OCc1c(F)cccc1F)C(=O)Nc1ccc(Cl)cc12` [Example 492, 2,6-difluorobenzyl ((S)-1-((3R,5'S)-5-chloro-5'-cyano-2-oxospiro[indoline-3,3'-pyrrolidin]-1'-yl)-3-cyclopropyl-1-oxopropan-2-yl)carbamate], the pEC50 (commonly the negative decadic logarithm of the EC50, by convention in mol/L) was 6.00 to 7.00.

`CN(C(=O)[C@H](O)C(C)(C)C)[C@@H](CC1CC1)C(=O)N1C[C@]2(C[C@H]1C#N)C(=O)Nc1ccccc12` [Example 417] had a negative logarithm of the EC50 (pEC50) of more than 7.00.

The compound `CC(C)(C)C[C@H](NC(=O)c1cc(OC(F)(F)F)c2ncccc2c1)C(=O)N1C[C@]2(C[C@H]1C#N)C(=O)Nc1ccccc12` [Example 137] gave a pEC50 of more than 7.00.

For `N#C[C@@H]1C[C@@]2(CN1C(=O)[C@H](CC1CCC1)NC(=O)OCc1ccccc1)C(=O)Nc1ccccc12` [Example 2], the pEC50 is 6.00 to 7.00.

As for `COc1ccc(C(=O)N(C)[C@@H](CC(C)C)C(=O)N2C[C@]3(C[C@H]2C#N)C(=O)Nc2ccccc23)cc1C(F)(F)F` [Example 181], the pEC50 is more than 7.00.

Take `COc1ccnc(C(=O)N(C)[C@@H](CC(C)C)C(=O)N2C[C@]3(C[C@H]2C#N)C(=O)Nc2ccccc23)c1` [Example 192]: the pEC50 was more than 7.00.

Consider `CC(C)C[C@@H](C(=O)N1C[C@]2(C[C@H]1C(=O)O)C(=O)Nc1ccc(Cl)cc12)N(C)C(=O)c1cc2c(F)cc(F)cc2[nH]1` [Example 497, (3R,5'S)-5-chloro-1'-(N-(4,6-difluoro-1H-indole-2-carbonyl)-N-methyl-L-leucyl)-2-oxospiro[indoline-3,3'-pyrrolidine]-5'-carboxylic acid], for which the pEC50 is less than 6.00.

Take `CN(C(=O)Cc1cnccn1)[C@@H](CC(C)(C)F)C(=O)N1C[C@]2(C[C@H]1C#N)C(=O)Nc1ccc(Cl)cc12` [Example 484]: the pEC50 was 6.00 to 7.00.

`CC(C)C[C@@H](C(=O)N1C[C@]2(C[C@H]1C#N)C(=O)Nc1ccc(-n3cc(C4CC4)nn3)cc12)N(C)C(=O)c1cc2c(F)cc(F)cc2[nH]1` [Example 505, N-((S)-1-((3R,5'S)-5'-cyano-5-(4-cyclopropyl-1H-1,2,3-triazol-1-yl)-2-oxospiro[indoline-3,3'-pyrrolidin]-1'-yl)-4-methyl-1-oxopentan-2-yl)-4,6-difluoro-N-methyl-1H-indole-2-carboxamide] gave a pEC50 of more than 7.00.

Compound `CC(C)C[C@@H](C(=O)N1C[C@]2(C[C@H]1C#N)C(=O)Nc1ccccc12)N(C)C(=O)[C@H](c1cn(C)nn1)C(C)C` [Example 351] had a pEC50 of 6.00 to 7.00.

For the compound `CC(C)C[C@@H](C(=O)N1C[C@]2(C[C@H]1C#N)C(=O)Nc1ccccc12)N(C)C(=O)c1ccc2ccsc2c1` [Example 246], the pEC50 is more than 7.00.

Consider `CC(C)C[C@@H](C(=O)N1C[C@]2(C[C@H]1C#N)C(=O)Nc1ccccc12)N(C)C(=O)c1cccc2cnccc12` [Example 215], for which the pEC50 is more than 7.00.

In turn, `CC(C)C[C@@H](C(=O)N1C[C@]2(C[C@H]1C#N)C(=O)Nc1ccccc12)N(C)C(=O)[C@H](c1cnn(C)c1)C(C)C` [Example 349] gave a pEC50 of 6.00 to 7.00.

In the case of `CCCN(C(=O)OCc1ccccc1)[C@@H](CC(C)C)C(=O)N1C[C@]2(C[C@H]1C#N)C(=O)Nc1ccccc12` [Example 97], the pEC50 is less than 6.00.

`CN(C(=O)OCc1ccccc1)[C@@H](CC1CC1)C(=O)N1C[C@]2(C[C@H]1C#N)C(=O)Nc1ccccc12` [Example 102] showed a pEC50 of less than 6.00.

Take `CC(C)C[C@@H](C(=O)N1C[C@]2(C[C@H]1C#N)C(=O)Nc1ccccc12)N(C)C(=O)c1cccc2ccccc12` [Example 220]: the pEC50 is more than 7.00.

Turning to `Cc1ccc2cc(C(=O)N(C)[C@@H](CC(C)C)C(=O)N3C[C@]4(C[C@H]3C#N)C(=O)Nc3ccccc34)cc(OC3CC3)c2n1` [Example 321], the pEC50 was 6.00 to 7.00.

With `CC(C)C[C@H](NC(=O)c1cc2c(F)cccc2[nH]1)C(=O)N1C[C@]2(C[C@H]1C#N)C(=O)Nc1c(F)cccc12` [Example 28], the pEC50 was more than 7.00.

As to `CC(C)C[C@@H](C(=O)N1C[C@]2(C[C@H]1C#N)C(=O)Nc1ccc(S(C)(=O)=O)cc12)N(C)C(=O)c1cc2c(F)cc(F)cc2[nH]1` [Example 500, N-((S)-1-((3R,5'S)-5'-cyano-5-(methylsulfonyl)-2-oxospiro[indoline-3,3'-pyrrolidin]-1'-yl)-4-methyl-1-oxopentan-2-yl)-4,6-difluoro-N-methyl-1H-indole-2-carboxamide], the pEC50 was more than 7.00.

`CC(C)C[C@@H](C(=O)N1C[C@]2(C[C@H]1C#N)C(=O)Nc1ccccc12)N(C)C(=O)[C@@H](c1cn(C)nn1)C(C)C` [Example 350]: the pEC50 is 6.00 to 7.00.

Compound `CC(C)C[C@@H](C(=O)N1C[C@]2(C[C@H]1C#N)C(=O)Nc1ccccc12)N(C)C(=O)c1nc2c(F)cc(F)c(F)c2[nH]1` [Example 270] showed a pEC50 of more than 7.00.

Turning to `CC(C)(C)C[C@H](NC(=O)Nc1ccc(F)cc1F)C(=O)N1C[C@]2(C[C@H]1C#N)C(=O)Nc1ccccc12` [Example 436], the pEC50 is more than 7.00.

Compound `CC(C)C[C@@H](C(=O)N1C[C@]2(C[C@H]1C#N)C(=O)Nc1ccccc12)N(C)C(=O)c1ccc2nc(-c3ccccc3)ccc2c1` [Example 257] showed a pEC50 of more than 7.00.

Regarding `CC(C)C[C@@H](C(=O)N1C[C@]2(C[C@H]1C#N)C(=O)Nc1ccccc12)N(C)C(=O)c1ccc(OC2CC2)c(-c2cccnc2)c1` [Example 343], the pEC50 is 6.00 to 7.00.

Compound `CC(C)C[C@@H](C(=O)N1C[C@]2(C[C@H]1C#N)C(=O)Nc1ccccc12)N(C)C(=O)c1cc(F)c2nc(C3CC3)cn2c1` [Example 318] had a pEC50 of more than 7.00.

In turn, `CC(C)C[C@@H](C(=O)N1C[C@]2(C[C@H]1C#N)C(=O)Nc1ccccc12)N(C)C(=O)c1cc(OC2CC2)c2nc(C3CC3)sc2c1` [Example 317] showed a pEC50 of 6.00 to 7.00.

`CC(C)C[C@@H](C(=O)N1C[C@]2(C[C@H]1C#N)C(=O)Nc1ccccc12)N(C)C(=O)c1cn(-c2ccc(F)cc2)nn1` [Example 283] had a negative logarithm of the EC50 (pEC50) of more than 7.00.

In turn, `CC(C)C[C@@H](C(=O)N1C[C@]2(C[C@H]1C(=O)C(=O)NC1CC1)C(=O)Nc1ccccc12)N(C)C(=O)c1cc2c(F)cccc2[nH]1` [Example 36] had a pEC50 of 6.00 to 7.00.

The compound `CC(C)C[C@@H](C(=O)N1C[C@]2(C[C@H]1C#N)C(=O)Nc1ccccc12)N(C)C(=O)c1nc2ccccc2n1C` [Example 282] had a pEC50 of more than 7.00.

With `CN(C(=O)c1cc2c(F)cc(F)cc2[nH]1)[C@@H](CC1CCC1)C(=O)N1C[C@]2(C[C@H]1C#N)C(=O)Nc1ccccc12` [Example 91], the pEC50 was more than 7.00.

`CN(C(=O)c1cc2c(F)cc(F)cc2[nH]1)[C@@H](CC(C)(C)C)C(=O)N1C[C@]2(C[C@H]1C#N)C(=O)Nc1ccccc12` [Example 88] gave a negative-log EC50 (pEC50) of more than 7.00.

`CC(C)C[C@@H](C(=O)N1C[C@]2(C[C@H]1C=O)C(=O)Nc1ccccc12)N(C)C(=O)c1cc2c(F)cc(F)cc2[nH]1` [Example 149] gave a pEC50 of more than 7.00.

Regarding `COc1cccc2[nH]c(C(=O)N[C@H](CC(C)(C)C)C(=O)N3C[C@]4(C[C@H]3C#N)C(=O)Nc3ccccc34)cc12` [Example 16], the pEC50 was 6.00 to 7.00.

Turning to `CC(C)C[C@@H](C(=O)N1C[C@]2(C[C@H]1C(=O)CCl)C(=O)Nc1ccccc12)N(C)C(=O)c1cc2c(F)cc(F)c(F)c2[nH]1` [Example 159], the pEC50 is less than 6.00.

Compound `CC(C)(C)C[C@H](NC(=O)c1cn(C2CCC2)nn1)C(=O)N1C[C@]2(C[C@H]1C#N)C(=O)Nc1ccccc12` [Example 148] showed a pEC50 of more than 7.00.
